According to US11267825B2 (AICURIS GMBH & CO. KG, priority 2017, dated 2022):

Tests used:
[1] = biological target: HBV core protein (UniProt P03146); assay type: biochemical; conditions: read-out: Assembly Activity (IC50); BODIPY-FL labelled core protein, assembly started with NaCl, read after 6 min
In short: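 Compounds tested at 8 concentrations in 0.5-log steps from 100, 31.6 or 10 μM against 1.0–2.0 μM BODIPY-FL-labelled Cys150 core dimers (residues 1–149), 50 mM HEPES pH 7.5. NaCl ([…] final) triggered assembly; quenching read at 6 min, 477/525 nm, with 2.5 M and 0 M NaCl as controls; EC50 by nonlinear fit.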

[2] = test system: HBV; test: Determination of HBV DNA from the supernatants of HepAD38 cells (anti-HBV activity); assay type: cell-based, hepatitis B virus; conditions: Hepatitis B virus, 144 h; HBV DNA in HepAD38 supernatant at day 6; read-out: Cell Activity (EC50)
In short: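 EC50 values were obtained by non-linear regression of HBV DNA copy numbers measured by qPCR against pCH-9/3091 plasmid standards. The DNA came from filtered supernatants collected on day 6. Before that, tetracycline-withdrawn HepAD38 cells had been exposed to serial half-log compound dilutions, with tetracycline-treated cells as the non-producing control.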

Chain of HBV core protein (P03146 whole entry, looked up, the tested form may be a part): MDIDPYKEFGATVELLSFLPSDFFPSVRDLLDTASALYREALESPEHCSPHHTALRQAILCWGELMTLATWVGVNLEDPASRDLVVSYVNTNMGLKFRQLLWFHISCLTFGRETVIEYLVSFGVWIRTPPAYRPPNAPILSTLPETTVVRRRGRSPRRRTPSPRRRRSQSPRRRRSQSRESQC

Structure (SMILES)	IC50 [1] [µM]	EC50 [2] [µM]
O=C(c1cc2c(Cl)ccc(F)c2[nH]1)N1CCc2nc(NCC3CCOC3)sc2C1 (stereo not drawn) [Example 116, 5-(4-chloro-7-fluoro-1H-indole-2-carbonyl)-N-[(oxolan-3-yl)methyl]-4H,5H,6H,7H-[1,3]thiazolo[5,4-c]pyridin-2-amine]	5 to 10	< 1
N#Cc1ccc(F)c2[nH]c(C(=O)N3CCc4nc(NCC5CCOC5)sc4C3)cc12 (stereo not drawn) [Example 117, 7-fluoro-2-(2-{[(oxolan-3-yl)methyl]amino}-4H,5H,6H,7H-[1,3]thiazolo[5,4-c]pyridine-5-carbonyl)-1H-indole-4-carbonitrile]	< 100	1 to 10
O=C(c1cc2ccccc2[nH]1)N1CCc2nc(NCC(F)(F)F)sc2C1 [Example 118, 5-(1H-indole-2-carbonyl)-N-(2,2,2-trifluoroethyl)-4H,5H,6H,7H-[1,3]thiazolo[5,4-c]pyridin-2-amine]	< 100	< 1
O=C(c1cc2c(F)cc(F)cc2[nH]1)N1CCc2nc(NCC3CCOC3)sc2C1 (stereo not drawn) [Example 119, 5-(4,6-difluoro-1H-indole-2-carbonyl)-N-[(oxolan-3-yl)methyl]-4H,5H,6H,7H-[1,3]thiazolo[5,4-c]pyridin-2-amine]	< 5	< 1
Cc1cc(F)cc2[nH]c(C(=O)N3CCc4nc(NCC5CCOC5)sc4C3)cc12 (stereo not drawn) [Example 120, 5-(6-fluoro-4-methyl-1H-indole-2-carbonyl)-N-[(oxolan-3-yl)methyl]-4H,5H,6H,7H-[1,3]thiazolo[5,4-c]pyridin-2-amine]	< 5	< 1
O=C(c1cc2c(Cl)cccc2[nH]1)N1CCc2nc(NCC3CCOC3)sc2C1 (stereo not drawn) [Example 121, 5-(4-chloro-1H-indole-2-carbonyl)-N-[(oxolan-3-yl)methyl]-4H,5H,6H,7H-[1,3]thiazolo[5,4-c]pyridin-2-amine]	< 5	< 1
O=C(c1cc2c(F)ccc(F)c2[nH]1)N1CCc2nc(NCC3CCOC3)sc2C1 (stereo not drawn) [Example 122, 5-(4,7-difluoro-1H-indole-2-carbonyl)-N-[(oxolan-3-yl)methyl]-4H,5H,6H,7H-[1,3]thiazolo[5,4-c]pyridin-2-amine]	< 5	< 1
O=C(c1cc2c(C(F)(F)F)cccc2[nH]1)N1CCc2nc(NCC3CCOC3)sc2C1 (stereo not drawn) [Example 123, 5-(4-(trifluoromethyl)-1H-indole-2-carbonyl)-N-[(oxolan-3-yl)methyl]-4H,5H,6H,7H-[1,3]thiazolo[5,4-c]pyridin-2-amine]	5 to 10	< 1
Cc1cccc2[nH]c(C(=O)N3CCc4nc(NCC5CCOC5)sc4C3)cc12 (stereo not drawn) [Example 124, 5-(4-methyl-1H-indole-2-carbonyl)-N-[(oxolan-3-yl)methyl]-4H,5H,6H,7H-[1,3]thiazolo[5,4-c]pyridin-2-amine]	< 5	< 1
O=C(c1cc2ccc(Cl)cc2[nH]1)N1CCc2nc(NCC3CCOC3)sc2C1 (stereo not drawn) [Example 125, 5-(6-chloro-1H-indole-2-carbonyl)-N-[(oxolan-3-yl)methyl]-4H,5H,6H,7H-[1,3]thiazolo[5,4-c]pyridin-2-amine]	< 5	< 1
O=C(c1cc2ccccc2[nH]1)N1CCc2nc(NCC3COC3)sc2C1 [Example 126, 5-(1H-indole-2-carbonyl)-N-[(oxetan-3-yl)methyl]-4H,5H,6H,7H-[1,3]thiazolo[5,4-c]pyridin-2-amine]	5 to 10	1 to 10
O=C(c1cc2ccccc2[nH]1)N1CCc2nc(NC3COC3)sc2C1 [Example 127, 5-(1H-indole-2-carbonyl)-N-(oxetan-3-yl)-4H,5H,6H,7H-[1,3]thiazolo[5,4-c]pyridin-2-amine]	< 5	< 1
CC(C)Nc1nc2c(s1)CN(C(=O)c1cc3ccccc3[nH]1)CC2 [Example 128, 5-(1H-indole-2-carbonyl)-N-(propan-2-yl)-4H,5H,6H,7H-[1,3]thiazolo[5,4-c]pyridin-2-amine]	< 5	< 1
O=C(c1cc2ccccc2[nH]1)N1CCc2nc(NCCCO)sc2C1 [Example 129, 3-{[5-(1H-indole-2-carbonyl)-4H,5H,6H,7H-[1,3]thiazolo[5,4-c]pyridin-2-yl]amino}propan-1-ol]	< 5	< 1
Nc1nc2c(s1)CN(C(=O)c1cc3c(Br)c(F)ccc3[nH]1)CC2 [Example 130, 5-(4-bromo-5-fluoro-1H-indole-2-carbonyl)-4H,5H,6H,7H-[1,3]thiazolo[5,4-c]pyridin-2-amine]	< 100	1 to 10
O=C(c1cc2c(F)ccc(F)c2[nH]1)N1CCc2nc(NC3CCOC3)sc2C1 (stereo not drawn) [Example 132, 5-(4,7-difluoro-1H-indole-2-carbonyl)-N-(oxolan-3-yl)-4H,5H,6H,7H-[1,3]thiazolo[5,4-c]pyridin-2-amine]	< 5	< 1
CN(C)c1nc2c(s1)CN(C(=O)c1cc3c(F)ccc(F)c3[nH]1)CC2 [Example 133, 5-(4,7-difluoro-1H-indole-2-carbonyl)-N,N-dimethyl-4H,5H,6H,7H-[1,3]thiazolo[5,4-c]pyridin-2-amine]	< 100	1 to 10

Structure (SMILES)	IC50 [1] [µM]	EC50 [2] [µM]
Cc1c(Cl)ccc2cc(C(=O)N3CCc4nc(N)sc4C3)[nH]c12 [Example 134, 5-(6-chloro-7-methyl-1H-indole-2-carbonyl)-4H,5H,6H,7H-[1,3]thiazolo[5,4-c]pyridin-2-amine]	< 5	< 1
Nc1nc2c(s1)CN(C(=O)c1cc3cc(Cl)c(Cl)cc3[nH]1)CC2 [Example 135, 5-(5,6-dichloro-1H-indole-2-carbonyl)-4H,5H,6H,7H-[1,3]thiazolo[5,4-c]pyridin-2-amine]	5 to 10	1 to 10
Cc1ccc2[nH]c(C(=O)N3CCc4nc(N)sc4C3)cc2c1C [Example 136, 5-(4,5-dimethyl-1H-indole-2-carbonyl)-4H,5H,6H,7H-[1,3]thiazolo[5,4-c]pyridin-2-amine]	5 to 10	1 to 10
Cc1cc(C)c2[nH]c(C(=O)N3CCc4nc(N)sc4C3)cc2c1 [Example 137, 5-(5,7-dimethyl-1H-indole-2-carbonyl)-4H,5H,6H,7H-[1,3]thiazolo[5,4-c]pyridin-2-amine]	< 100	< 100
Cc1cc(C)c2cc(C(=O)N3CCc4nc(N)sc4C3)[nH]c2c1 [Example 138, 5-(4,6-dimethyl-1H-indole-2-carbonyl)-4H,5H,6H,7H-[1,3]thiazolo[5,4-c]pyridin-2-amine]	< 5	1 to 10
Cc1cc(Cl)cc2cc(C(=O)N3CCc4nc(N)sc4C3)[nH]c12 [Example 139, 5-(5-chloro-7-methyl-1H-indole-2-carbonyl)-4H,5H,6H,7H-[1,3]thiazolo[5,4-c]pyridin-2-amine]	< 100	< 100
O=C(c1cc2c(Cl)cc(F)cc2[nH]1)N1CCc2nc(NC3CCOC3)sc2C1 (stereo not drawn) [Example 140, 5-(4-chloro-6-fluoro-1H-indole-2-carbonyl)-N-(oxolan-3-yl)-4H,5H,6H,7H-[1,3]thiazolo[5,4-c]pyridin-2-amine]	< 5	< 1
O=C(c1cc2ccccc2[nH]1)N1CCc2nc(O)sc2C1 [Example 141, 5-(1H-indole-2-carbonyl)-4H,5H,6H,7H-[1,3]thiazolo[5,4-c]pyridin-2-ol]	< 100	1 to 10
CC(O)CNc1nc2c(s1)CN(C(=O)c1cc3c(Cl)cc(F)cc3[nH]1)CC2 (stereo not drawn) [Example 142, 1-{[5-(4-chloro-6-fluoro-1H-indole-2-carbonyl)-4H,5H,6H,7H-[1,3]thiazolo[5,4-c]pyridin-2-yl]amino}propan-2-ol]	< 5	< 1
Nc1nc2c(s1)CN(C(=O)c1cc3c(F)cc(Br)cc3[nH]1)CC2 [Example 143, 5-(6-bromo-4-fluoro-1H-indole-2-carbonyl)-4H,5H,6H,7H-[1,3]thiazolo[5,4-c]pyridin-2-amine]	< 5	< 1
CC(O)CNc1nc2c(s1)CN(C(=O)c1cc3c(F)ccc(F)c3[nH]1)CC2 (stereo not drawn) [Example 144, 1-{[5-(4,7-difluoro-1H-indole-2-carbonyl)-4H,5H,6H,7H-[1,3]thiazolo[5,4-c]pyridin-2-yl]amino}propan-2-ol]	< 5	< 1
Nc1nc2c(s1)CN(C(=O)c1cc3c([N+](=O)[O-])cccc3[nH]1)CC2 [Example 145, 5-(4-nitro-1H-indole-2-carbonyl)-4H,5H,6H,7H-[1,3]thiazolo[5,4-c]pyridin-2-amine]	< 5	< 1
Nc1nc2c(s1)CN(C(=O)c1cc3c(C(F)(F)F)cccc3[nH]1)CC2 [Example 146, 5-(4-(trifluoromethyl)-1H-indole-2-carbonyl)-4H,5H,6H,7H-[1,3]thiazolo[5,4-c]pyridin-2-amine]	< 5	< 1
Nc1nc2c(s1)CN(C(=O)c1cc3c(F)cc(Cl)cc3[nH]1)CC2 [Example 147, 5-(6-chloro-4-fluoro-1H-indole-2-carbonyl)-4H,5H,6H,7H-[1,3]thiazolo[5,4-c]pyridin-2-amine]	< 5	< 1
Nc1nc2c(s1)CN(C(=O)c1cc3ccc(Cl)c(Cl)c3[nH]1)CC2 [Example 148, 5-(6,7-dichloro-1H-indole-2-carbonyl)-4H,5H,6H,7H-[1,3]thiazolo[5,4-c]pyridin-2-amine]	< 5	1 to 10
Cc1cccc2[nH]c(C(=O)N3CCc4nc(N)sc4C3)cc12 [Example 149, 5-(4-methyl-1H-indole-2-carbonyl)-41H,5H,6H,7H-[1,3]thiazolo[5,4-c]pyridin-2-amine]	< 5	1 to 10
